Results on 39 molecules are retold here after patent US20050090522A1 (priority 2001, published 2005).

Molecules are shown by their SMILES. pEC50: −log10 of the molar value.

One experiment relates to HIV-1. Description: HIV-1 single-round infectious luciferase reporter virus (pseudotype) assay in HeLa CD4 CCR5 cells. It is filed as cell-based. The note with it: Human immunodeficiency virus 1, HeLa-CD4/CCR5, read-out: EC50 Group from TABLE 1, HeLa CD4 CCR5 cells, single-round infectious luciferase reporter virus. An outline of the steps: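 Reporter pseudovirus produced in 293 cells infected HeLa cells expressing CD4/CCR5 at MOI ~0.01, with compound present at <10 μM final. Infection was quantified as luciferase luminescence after 72 h.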
Take `COc1cnc(-c2cnc(CC(C)C)s2)c2[nH]cc(C(=O)C(=O)N3CCN(C(=O)c4ccccc4)CC3)c12` [Example 90, 1-benzoyl-4-[(4-methoxy-7-(2-isobutyl-thiazol-5-yl)-6-azaindol-3-yl)-oxoacetyl]piperazine]: the pEC50 was greater than 6.00.

Turning to `CCC(C)c1ncc(-c2ncc(OC)c3c(C(=O)C(=O)N4CCN(C(=O)c5ccccc5)CC4)c[nH]c23)s1` (stereo not drawn) [Example 91, 1-benzoyl-4-[(4-methoxy-7-(2-(2-butyl)-thiazol-5-yl)-6-azaindol-3-yl)-oxoacetyl]piperazine], the pEC50 is greater than 6.00. For the molecule `COc1cnc(-c2cnc(-c3nccs3)s2)c2[nH]cc(C(=O)C(=O)N3CCN(C(=O)c4ccccc4)CC3)c12` [Example 92, 1-benzoyl-4-[(4-methoxy-7-(2-(thiazol-2-yl)-thiazol-5-yl)-6-azaindol-3-yl)-oxoacetyl]piperazine], the pEC50 is greater than 6.00.

Turning to `COc1cnc(-c2cnc(SC)s2)c2[nH]cc(C(=O)C(=O)N3CCN(C(=O)c4ccccc4)CC3)c12` [Example 93, 1-benzoyl-4-[(4-methoxy-7-(2-methylthio-thiazol-5-yl)-6-azaindol-3-yl)-oxoacetyl]piperazine], the pEC50 was greater than 6.00. Still for that read-out and setting: the same measure for `COc1cnc(-c2cnc(O)cn2)c2[nH]cc(C(=O)C(=O)N3CCN(C(=O)c4ccccc4)CC3)c12` [Example 97, 1-(benzoyl)-4-[(4-methoxy-7-(2-hydroxyl-pyrazin-5-yl)-6-azaindol-3-yl)-oxoacetyl]piperazine]: greater than 6.00.

Regarding `COc1cnc(-c2cc3ccccc3o2)c2[nH]cc(C(=O)C(=O)N3CCN(C(=O)c4ccccc4)CC3)c12` [Example 98], the negative-log EC50 (pEC50) is greater than 6.00. Take `COc1cnc(-c2cnc(NC(C)=O)cn2)c2[nH]cc(C(=O)C(=O)N3CCN(C(=O)c4ccccc4)CC3)c12` [Example 99, 1-(benzoyl)-4-[(4-methoxy-7-(2-acetylamino-pyrazin-5-yl)-6-azaindol-3-yl)-oxoacetyl]piperazine]: the pEC50 is greater than 6.00. With `CNc1ncc(-c2ncc(OC)c3c(C(=O)C(=O)N4CCN(C(=O)c5ccccc5)CC4)c[nH]c23)nc1OC` [Example 100, 1-benzoyl-4-[(4-methoxy-7-(2-methylamino-3-methoxy-pyrazin-5-yl)-6-azaindol-3-yl)-oxoacetyl]piperazine], the pEC50 was greater than 6.00. `COc1nc(-c2ncc(OC)c3c(C(=O)C(=O)N4CCN(C(=O)c5ccccc5)CC4)c[nH]c23)cnc1N` [Example 101, 1-benzoyl-4-[(4-methoxy-7-(2-amino-3-methoxy-pyrazin-5-yl)-6-azaindol-3-yl)-oxoacetyl]piperazine]: the pEC50 was greater than 6.00. With `COc1cnc(-c2cnc(N(C)C)cn2)c2[nH]cc(C(=O)C(=O)N3CCN(C(=O)c4ccccn4)CC3)c12` [Example 103, 1-picolinoyl-4-[(4-methoxy-7-(2-dimethylamino-pyrazin-5-yl)-6-azaindol-3-yl)-oxoacetyl]piperazine], the pEC50 was greater than 6.00. Regarding `COc1cnc(-c2cc3ccncc3o2)c2[nH]cc(C(=O)C(=O)N3CCN(C(=O)c4ccccc4)CC3)c12` [Example 104, 1-benzoyl-4-[(4-methoxy-7-(6-aza-benzofuran-2-yl)-6-azaindol-3-yl)-oxoacetyl]piperazine], the pEC50 was greater than 6.00. As for `C[C@@H]1CN(C(=O)c2ccccn2)CCN1C(=O)C(=O)c1c[nH]c2c(-c3cnc(N(C)C)cn3)nccc12` [Example 105, (R)-1-picolinoyl-3-methyl-4-[(7-(2-dimethylamino-pyrazin-5-yl)-6-azaindol-3-yl)-oxoacetyl]piperazine], the pEC50 was greater than 6.00. As for `C[C@H]1CN(C(=O)c2ccccn2)CCN1C(=O)C(=O)c1c[nH]c2c(-c3cnc(N(C)C)cn3)nccc12` [Example 106, (S)-1-picolinoyl-3-methyl-4-[(7-(2-dimethylamino-pyrazin-5-yl)-6-azaindol-3-yl)-oxoacetyl]piperazine], the pEC50 is greater than 6.00. `C[C@@H]1CN(C(=O)c2ccccn2)CCN1C(=O)C(=O)c1c[nH]c2c(-c3cc4ccccc4o3)nccc12` [Example 107, (R)-1-picolinoyl-3-methyl-4-[(7-(benzofuran-2-yl)-6-azaindol-3-yl)-oxoacetyl]piperazine]: the pEC50 is greater than 6.00. With `C[C@H]1CN(C(=O)c2ccccn2)CCN1C(=O)C(=O)c1c[nH]c2c(-c3cc4ccccc4o3)nccc12` [Example 108, (S)-1-picolinoyl-3-methyl-4-[(7-(benzofuran-2-yl)-6-azaindol-3-yl)-oxoacetyl]piperazine], the pEC50 is greater than 6.00.

For `C[C@@H]1CN(C(=O)c2ccccn2)CCN1C(=O)C(=O)c1c[nH]c2c(-c3cncs3)nccc12` [Example 109, (R)-1-picolinoyl-3-methyl-4-[(7-(thiazol-5-yl)-6-azaindol-3-yl)-oxoacetyl]piperazine], the pEC50 is greater than 6.00. Same read-out and setting: to `C[C@H]1CN(C(=O)c2ccccn2)CCN1C(=O)C(=O)c1c[nH]c2c(-c3cncs3)nccc12` [Example 110, (S)-1-picolinoyl-3-methyl-4-[(7-(thiazol-5-yl)-6-azaindol-3-yl)-oxoacetyl]piperazine] belongs greater than 6.00; to `C[C@@H]1CN(C(=O)c2ccccc2)CCN1C(=O)C(=O)c1c[nH]c2c(-c3cncc(N)n3)nccc12` [Example 111, (R)-1-benzoyl-3-methyl-4-[(7-(2-amino-pyrazin-6-yl)-6-azaindol-3-yl)-oxoacetyl]piperazine], greater than 6.00.

Take `C[C@@H]1CN(C(=O)c2ccccc2)CCN1C(=O)C(=O)c1c[nH]c2c(-c3cccc(N)n3)nccc12` [Example 112, (R)-1-benzoyl-3-methyl-4-[(7-(2-amino-pyridin-6-yl)-6-azaindol-3-yl)-oxoacetyl]piperazine]: the pEC50 was greater than 6.00. Consider `C[C@@H]1CN(C(=O)c2ccccc2)CCN1C(=O)C(=O)c1c[nH]c2c(-c3ccc(N)nc3)nccc12` [Example 113, (R)-1-benzoyl-3-methyl-4-[(7-(2-amino-pyridin-5-yl)-6-azaindol-3-yl)-oxoacetyl]piperazine], for which the pEC50 was greater than 6.00.

Consider `C[C@@H]1CN(C(=O)c2ccccc2)CCN1C(=O)C(=O)c1c[nH]c2c(-c3ccc(N)cn3)nccc12` [Example 114, (R)-1-benzoyl-3-methyl-4-[(7-(5-amino-pyridin-2-yl)-6-azaindol-3-yl)-oxoacetyl]piperazine], for which the pEC50 is greater than 6.00. `CNc1cnc(-c2ncc(OC)c3c(C(=O)C(=O)N4CCN(C(=O)c5ccccc5)CC4)c[nH]c23)cn1` [Example 115, 1-benzoyl-4-[(4-methoxy-7-(2-methylamino-pyrazin-5-yl)-6-azaindol-3-yl)-oxoacetyl]piperazine]: the pEC50 was greater than 6.00. Regarding `COc1cnc(-c2cnc(N3CCCC3=O)s2)c2[nH]cc(C(=O)C(=O)N3CCN(C(=O)c4ccccc4)CC3)c12` [Example 116, 1-benzoyl-4-[(4-methoxy-7-((2-pyrrolidinon-1-yl)-thiazol-5-yl)-6-azaindol-3-yl)-oxoacetyl]piperazine], the pEC50 was greater than 6.00. Take `COc1ncc(-c2ncc(OC)c3c(C(=O)C(=O)N4CCN(C(=O)c5ccccc5)CC4)c[nH]c23)cn1` [Example 117, 1-benzoyl-4-[(4-methoxy-7-(2-methoxy-pyrmdin-5-yl)-6-azaindol-3-yl)-oxoacetyl]piperazine]: the pEC50 was greater than 6.00. On the same count and under the same terms, to `COc1cnc(-c2cnc(-n3cccc3)nc2)c2[nH]cc(C(=O)C(=O)N3CCN(C(=O)c4ccccc4)CC3)c12` [Example 118, 1-benzoyl-4-[(4-methoxy-7-(2-(pyrrol-1-yl)-pyrimidin-5-yl)-6-azaindol-3-yl)-oxoacetyl]piperazine] belongs greater than 6.00; to `COc1cnc(-c2cccnn2)c2[nH]cc(C(=O)C(=O)N3CCN(C(=O)c4ccccc4)CC3)c12` [Example 120, 1-benzoyl-4-[(4-methoxy-7-(pyridazin-3-yl)-6-azaindol-3-yl)-oxoacetyl]piperazine], greater than 6.00. Still for that read-out and setting: the same measure for `C[C@@H]1CN(C(=O)c2ccccc2)CCN1C(=O)C(=O)c1c[nH]c2c(-c3cncc(O)n3)nccc12` [Example 121]: greater than 6.00; for `C[C@@H]1CN(C(=O)c2ccccc2)CCN1C(=O)C(=O)c1c[nH]c2c(-c3ccc(O)nc3)nccc12` [Example 122]: greater than 6.00; for `C[C@@H]1CN(C(=O)c2ccccc2)CCN1C(=O)C(=O)c1c[nH]c2c(-c3cccc(O)n3)nccc12` [Example 123]: greater than 6.00.

Take `C[C@@H]1CN(C(=O)c2ccccc2)CCN1C(=O)C(=O)c1c[nH]c2c(-c3ccc(O)cn3)nccc12` [Example 124]: the pEC50 is greater than 6.00. For the molecule `O=C(C(=O)N1CCN(C(=O)c2ccccc2)CC1)c1c[nH]c2c(-c3ccncn3)ncc(F)c12` [Example 125], the pEC50 was greater than 6.00.

The same experiment, now with this note: Human immunodeficiency virus 1, HeLa-CD4/CCR5, read-out: EC50 Group from Table 1, Table 4; HeLa CD4 CCR5 cells, single-round luciferase reporter virus.
`C[C@@H]1CN(C(=O)c2ccccc2)CCN1C(=O)C(=O)c1c[nH]c2c(-c3ncco3)ccnc12` [Example 126]: the pEC50 was greater than 6.00. Still for that read-out and setting: the same measure for `C[C@@H]1CN(C(=O)c2ccccc2)CCN1C(=O)C(=O)c1c[nH]c2c(-c3cc4ccccc4s3)ccnc12` [Example 127]: greater than 6.00. Still for that read-out and setting: to `C[C@@H]1CN(C(=O)c2ccccc2)CCN1C(=O)C(=O)c1c[nH]c2c(-c3cccs3)ccnc12` [Example 128] belongs greater than 6.00; to `C[C@@H]1CN(C(=O)c2ccccc2)CCN1C(=O)C(=O)c1c[nH]c2c(-c3ccsc3)ccnc12` [Example 129], greater than 6.00; to `Cc1noc(C)c1-c1ccnc2c(C(=O)C(=O)N3CCN(C(=O)c4ccccc4)C[C@H]3C)c[nH]c12` [Example 130], greater than 6.00. Take `O=C(C(=O)N1CCN(C(=O)c2ccccc2)CC1)c1c[nH]c2c(-c3nccs3)ccnc12` [Example 131]: the pEC50 is greater than 6.00. For `CC(=O)c1ccc(-c2ccnc3c(C(=O)C(=O)N4CCN(C(=O)c5ccccc5)CC4)c[nH]c23)s1` [Example 132], the pEC50 is greater than 6.00. As to `O=Cc1ccc(-c2ccnc3c(C(=O)C(=O)N4CCN(C(=O)c5ccccc5)CC4)c[nH]c23)s1` [Example 133], the pEC50 was greater than 6.00.
